# Measurements taken from patent publication US20030109548A1, “Compositions and methods of treating iron excess” (priority 2001, published 2003).
# Experiments:
# [1] = Micelle formation upon mixing with FeCl3 (brightfield microscopy); format: physicochemical; conditions: 0.2 M in ethanol mixed with 0.2 M FeCl3 in ethanol, 3/1 ratio, reduced to half volume
# Text: Micelle formation. […] Also, synthesized pseudan IX, 0.2 M in ethanol, was mixed with 0.2 M FeCl3 in ethanol in a 3/1 ratio. Following reduction to half the volume using a nitrogen bubbler, micelles were observed as above. An Olympus BX-60 microscope and an Optronics DEI 750 camera were used.
# [2] = isolated from filtrates of 4 to 6 week old culture of P. aeruginosa; cited from earlier work
structure (smiles),measurement,setting,value
"CCCCCCCCCc1cc(O)c2ccccc2n1 [pseudan IX, 4-hydroxy-2-nonylquinoline]",micelle formation with iron,[1],"Pink micelles, albeit smaller, are also evident"
same,antibiotic activity,[2],shown to exhibit antibiotic activity
